From patent US12209135B2, “Anti-CD45 antibodies and conjugates thereof” (priority 2019, dated 2025)
Marks after values point to notes of the source that are not given here.

Assays:
T-ALL PDX = assay: T-ALL patient-derived xenograft (PDX) model; type: in vivo, immune deficient mice (NSG-SGM3, or NSG); conditions: for Median Survival (Days Post Implant): Table 24
Experimental: (§1) A panel of models were evaluated to mimic untreated and refractory disease: AML patient derived xenograft (PDX) models (from treatment naïve and relapsed post allogeneic HCT patients; all FLT-3+NPM1+), ALL cells from an immortalized cell line (REH-Luc), and T-ALL patient-derived xenograft (PDX) model (from a patient progressing post DHAP chemotherapy).
(§2) AML #1 was derived from a treatment naïve patient (J000106134) and AML #2 was derived from a heavily pre-treated relapsed refectory patient post allogenic HSCT (J000106132), The T-ALL was derived from a patient progressing post DHAP chemotherapy. The cell line-derived ALL was transduced to express firefly luciferase. Cells of each tumor type were systemically inoculated into immune deficient mice (NSG-SGM3, or NSG).
(§3) Treatment began when peripheral tumor burden of PDX (n=3-5/group), and CDX mice reached 2-16% blast in the peripheral blood or day 5 post implant for the REH-luc model (n=10/group).

AML #1 PDX = assay: AML patient derived xenograft model AML #1 (treatment naïve); type: in vivo, immune deficient mice (NSG-SGM3, or NSG); conditions: Table 25; 30 mg/kg QDx5
Experimental: as §1, §2, §3
(§4) In the AML patient derived xenograft (PDX) models from treatment naïve and relapsed post allogeneic […] patients, treatment began when 2-16% blasts were detected in the periphery (n=3-5 mice/group/AML PDX model). Mice were treated with a single intravenous dose of anti-human CD45-ADC (AbA-AM), isotype-ADC, or vehicle (PBS). Ara-c was administered intravenously once daily for five consecutive days.

AML #2 PDX = assay: AML patient derived xenograft model AML #2 (relapsed refractory post allogeneic HSCT); type: in vivo, immune deficient mice (NSG-SGM3, or NSG); conditions: Table 26; 30 mg/kg QDx5
Experimental: as §1, §2, §3, §4

REH-Luc ALL cells = assay: REH-Luciferase ALL xenograft (CDX) model; type: in vivo, immune deficient mice (NSG-SGM3, or NSG); conditions: Table 23; 3 mg/kg QWx3
Experimental: as §1, §2, §3
Bioluminescence signal was measured using the IVIS imaging system (PerkinElmer). Radiance (mean±SEM) was captured over a time course of the study. Representative bioluminescence signal pseudo colored images were captured on day 22-23 post-implantation for all treatment groups, as shown in FIG. 29C.

[1] = Quintieri et al. 2005; cited from earlier work

Nc1ccn([C@@H]2O[C@H](CO)[C@@H](O)[C@@H]2O)c(=O)n1 [Ara-C]
Median Survival (Days Post Implant) (T-ALL PDX; 30 mg/kg QDx5): 77*^† Days
Median Survival (Days Post Implant) (AML #1 PDX): 97^† Days
Median Survival (Days Post Implant) (AML #2 PDX): 60^†‡ Days

C[C@@H]1C[C@H]2[C@@H]3CCC4=CC(=O)C=C[C@]4(C)[C@@]3(F)[C@@H](O)C[C@]2(C)[C@@]1(O)C(=O)CO [Dexamethasone, dexamethasone]
Median Survival (Days Post Implant) (T-ALL PDX; 5 mg/kg Q3Dx9): 47*^‡ Days
median survival (T-ALL PDX; text b933, AbA-AM1 single injection 3, or 6 mg/kg on day 5, n=5 mice/group): 47 days

COc1cccc2c1C(=O)c1c(O)c3c(c(O)c1C2=O)C[C@@](O)(C(=O)CO)C[C@@H]3O[C@H]1C[C@H](N)[C@H](O)[C@H](C)O1 [Doxorubicin, doxorubicin]
Median Survival (Days Post Implant) (REH-Luc ALL cells): 50^† Days

COc1cccc2c1C(=O)c1c(O)c3c(c(O)c1C2=O)C[C@@](O)(C(=O)CO)C[C@@H]3O[C@H]1CC2[C@H](O[C@@H]3[C@@H](OC)OCCN23)[C@H](C)O1 (stereo partly shown) [PNU-159682]
cytotoxicity relative to the parent nemorubicin [1]: greater than 3000 fold
